From PubChem BioAssay AID1918931 (Molecular Pharmacology Branch, DTP, NCI, 2023)

System: 138582-337-R-J1-PDC complex spheroid viability
Assay: Anticancer human tumor 138582-337-R-J1-PDC patient-derived Merkel cell tumor cell line growth inhibition
Settings: for IC50: curve of first compound; for viability, T/C: stronger effect = lower value; active means viability on the fitted dose curve at most 10% of control; inactive means the rest
Procedure, shortened: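 Complex spheroids of tumor cells with HUVEC and human MSCs, exposed to iadademstat combined with other agents. Each agent tested in half-log steps from near clinical Cmax (else 10 microM top), DMSO ≤0.25%.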

[1] = second compound 0.1 µM, first compound 0.00316 µM
[2] = second compound 0.1 µM, first compound 0.01 µM
[3] = second compound 0.1 µM, first compound 0.0316 µM
[4] = second compound 0.1 µM, first compound 0.1 µM
[5] = second compound 0.316 µM, first compound 0.00316 µM
[6] = second compound 0.316 µM, first compound 0.01 µM
[7] = second compound 0.316 µM, first compound 0.0316 µM
[8] = second compound 0.316 µM, first compound 0.1 µM
[9] = second compound 1 µM, first compound 0.00316 µM
[10] = second compound 1 µM, first compound 0.01 µM
[11] = second compound 1 µM, first compound 0.0316 µM
[12] = second compound 1 µM, first compound 0.1 µM
[13] = second compound 3.16 µM, first compound 0.00316 µM
[14] = second compound 3.16 µM, first compound 0.01 µM
[15] = second compound 3.16 µM, first compound 0.0316 µM
[16] = second compound 3.16 µM, first compound 0.1 µM
[17] = second compound 10 µM, first compound 0.00316 µM
[18] = second compound 10 µM, first compound 0.01 µM
[19] = second compound 10 µM, first compound 0.0316 µM
[20] = second compound 10 µM, first compound 0.1 µM
[21] = second compound 0.1 µM, first compound 0.000949 µM
[22] = second compound 0.1 µM, first compound 0.003 µM
[23] = second compound 0.1 µM, first compound 0.00949 µM
[24] = second compound 0.1 µM, first compound 0.03 µM
[25] = second compound 0.1 µM, first compound 0.0949 µM
[26] = second compound 0.1 µM, first compound 0.3 µM
[27] = second compound 0.316 µM, first compound 0.000949 µM
[28] = second compound 0.316 µM, first compound 0.003 µM
[29] = second compound 0.316 µM, first compound 0.00949 µM
[30] = second compound 0.316 µM, first compound 0.03 µM
[31] = second compound 0.316 µM, first compound 0.0949 µM
[32] = second compound 0.316 µM, first compound 0.3 µM
[33] = second compound 1 µM, first compound 0.000949 µM
[34] = second compound 1 µM, first compound 0.003 µM
[35] = second compound 1 µM, first compound 0.00949 µM
[36] = second compound 1 µM, first compound 0.03 µM
[37] = second compound 1 µM, first compound 0.0949 µM
[38] = second compound 1 µM, first compound 0.3 µM
[39] = second compound 3.16 µM, first compound 0.000949 µM
[40] = second compound 3.16 µM, first compound 0.003 µM
[41] = second compound 3.16 µM, first compound 0.00949 µM
[42] = second compound 3.16 µM, first compound 0.03 µM
[43] = second compound 3.16 µM, first compound 0.0949 µM
[44] = second compound 3.16 µM, first compound 0.3 µM
[45] = second compound 10 µM, first compound 0.000949 µM
[46] = second compound 10 µM, first compound 0.003 µM
[47] = second compound 10 µM, first compound 0.00949 µM
[48] = second compound 10 µM, first compound 0.03 µM
[49] = second compound 10 µM, first compound 0.0949 µM
[50] = second compound 10 µM, first compound 0.3 µM

CC[C@@]1(O)C(=O)OCc2c1cc1n(c2=O)Cc2cc3c(CN(C)C)c(O)ccc3nc2-1 + NC1CCC(NC2CC2c2ccccc2)CC1
> 100 nM: IC50 (second compound 0.1 µM) | IC50 (second compound 0.316 µM) | IC50 (second compound 1 µM) | IC50 (second compound 3.16 µM) | IC50 (second compound 10 µM)
inactive: viability, T/C (second compound 0.1 µM, first compound 0.000316 µM) 91% | viability, T/C (second compound 0.1 µM, first compound 0.001 µM) 99.7% | viability, T/C [1] 105% | viability, T/C [2] 101% | viability, T/C [3] 98.9% | viability, T/C [4] 114% | viability, T/C (second compound 0.316 µM, first compound 0.000316 µM) 101% | viability, T/C (second compound 0.316 µM, first compound 0.001 µM) 96.8% | viability, T/C [5] 120% | viability, T/C [6] 102% | viability, T/C [7] 95.7% | viability, T/C [8] 92.2% | viability, T/C (second compound 1 µM, first compound 0.000316 µM) 92% | viability, T/C (second compound 1 µM, first compound 0.001 µM) 101% | viability, T/C [9] 115% | viability, T/C [10] 95.6% | viability, T/C [11] 105% | viability, T/C [12] 107% | viability, T/C (second compound 3.16 µM, first compound 0.000316 µM) 91.2% | viability, T/C (second compound 3.16 µM, first compound 0.001 µM) 96.6% | viability, T/C [13] 104% | viability, T/C [14] 106% | viability, T/C [15] 93.4% | viability, T/C [16] 105% | viability, T/C (second compound 10 µM, first compound 0.000316 µM) 95.4% | viability, T/C (second compound 10 µM, first compound 0.001 µM) 91.6% | viability, T/C [17] 86.8% | viability, T/C [18] 87.3% | viability, T/C [19] 91.2% | viability, T/C [20] 70.7%

CCc1c2c(nc3ccc(O)cc13)-c1cc3c(c(=O)n1C2)COC(=O)[C@]3(O)CC + NC1CCC(NC2CC2c2ccccc2)CC1
12.1 nM: IC50 (second compound 3.16 µM)
10.6 nM: IC50 (second compound 10 µM)
inactive: viability, T/C [21] 91.7% | viability, T/C [22] 87.9% | viability, T/C [23] 57.5% | viability, T/C [24] 18.6% | viability, T/C [27] 85.1% | viability, T/C [28] 84.6% | viability, T/C [29] 55.1% | viability, T/C [30] 18.2% | viability, T/C [33] 80.9% | viability, T/C [34] 78.7% | viability, T/C [35] 51.5% | viability, T/C [36] 14.5% | viability, T/C [39] 78.3% | viability, T/C [40] 75.1% | viability, T/C [41] 58.9% | viability, T/C [42] 17.6% | viability, T/C [45] 68.8% | viability, T/C [46] 68.9% | viability, T/C [47] 54.2%
active: viability, T/C [25] 0.42% | viability, T/C [26] 0.49% | viability, T/C [31] 0.45% | viability, T/C [32] 0.5% | viability, T/C [37] 0.38% | viability, T/C [38] 0.35% | viability, T/C [43] 0.39% | viability, T/C [44] 0.54% | viability, T/C [48] 9.4% | viability, T/C [49] 0.34% | viability, T/C [50] 0.52%
11.5 nM: IC50 (second compound 0.316 µM)
10.1 nM: IC50 (second compound 1 µM)
12 nM: IC50 (second compound 0.1 µM)

COc1cc(C2c3cc4c(cc3C(OC3OC5COC(C)OC5C(O)C3O)C3COC(=O)C23)OCO4)cc(OC)c1O (stereo not given) + NC1CCC(NC2CC2c2ccccc2)CC1
> 3000 nM: IC50 (second compound 0.1 µM) | IC50 (second compound 0.316 µM) | IC50 (second compound 1 µM) | IC50 (second compound 3.16 µM) | IC50 (second compound 10 µM)
inactive: viability, T/C [23] 105% | viability, T/C [24] 89.8% | viability, T/C [25] 67.3% | viability, T/C [26] 69.4% | viability, T/C (second compound 0.1 µM, first compound 0.949 µM) 70.3% | viability, T/C (second compound 0.1 µM, first compound 3 µM) 66.4% | viability, T/C [29] 102% | viability, T/C [30] 76.3% | viability, T/C [31] 85.4% | viability, T/C [32] 85.8% | viability, T/C (second compound 0.316 µM, first compound 0.949 µM) 74% | viability, T/C (second compound 0.316 µM, first compound 3 µM) 60.7% | viability, T/C [35] 90.8% | viability, T/C [36] 95.3% | viability, T/C [37] 76% | viability, T/C [38] 68.7% | viability, T/C (second compound 1 µM, first compound 0.949 µM) 94.1% | viability, T/C (second compound 1 µM, first compound 3 µM) 85.2% | viability, T/C [41] 82.6% | viability, T/C [42] 87.3% | viability, T/C [43] 85.1% | viability, T/C [44] 71.6% | viability, T/C (second compound 3.16 µM, first compound 0.949 µM) 69.1% | viability, T/C (second compound 3.16 µM, first compound 3 µM) 95.3% | viability, T/C [47] 73.8% | viability, T/C [48] 81.6% | viability, T/C [49] 75.3% | viability, T/C [50] 82% | viability, T/C (second compound 10 µM, first compound 0.949 µM) 65.5% | viability, T/C (second compound 10 µM, first compound 3 µM) 56.7%

Nc1ccn(C2OC(CO)C(O)C2(F)F)c(=O)n1 (stereo not given) + NC1CCC(NC2CC2c2ccccc2)CC1
> 300 nM: IC50 (second compound 0.1 µM) | IC50 (second compound 0.316 µM) | IC50 (second compound 1 µM) | IC50 (second compound 3.16 µM) | IC50 (second compound 10 µM)
inactive: viability, T/C [21] 96% | viability, T/C [22] 94.2% | viability, T/C [23] 94.2% | viability, T/C [24] 95.3% | viability, T/C [25] 94.7% | viability, T/C [26] 105% | viability, T/C [27] 89.9% | viability, T/C [28] 92% | viability, T/C [29] 93.6% | viability, T/C [30] 85.8% | viability, T/C [31] 84.2% | viability, T/C [32] 106% | viability, T/C [33] 98.3% | viability, T/C [34] 93.7% | viability, T/C [35] 95.4% | viability, T/C [36] 80.9% | viability, T/C [37] 108% | viability, T/C [38] 85.6% | viability, T/C [39] 79.8% | viability, T/C [40] 81% | viability, T/C [41] 91.8% | viability, T/C [42] 87.9% | viability, T/C [43] 85.8% | viability, T/C [44] 88.7% | viability, T/C [45] 88.7% | viability, T/C [46] 71.1% | viability, T/C [47] 87% | viability, T/C [48] 79.4% | viability, T/C [49] 76.4% | viability, T/C [50] 92.6%

Nc1ncn(C2CC(O)C(CO)O2)c(=O)n1 (stereo not given) + NC1CCC(NC2CC2c2ccccc2)CC1
inactive: viability, T/C [1] 98.7% | viability, T/C [2] 97.8% | viability, T/C [3] 103% | viability, T/C [4] 108% | viability, T/C (second compound 0.1 µM, first compound 0.316 µM) 95.4% | viability, T/C (second compound 0.1 µM, first compound 1 µM) 102% | viability, T/C [5] 82.7% | viability, T/C [6] 99.4% | viability, T/C [7] 96.6% | viability, T/C [8] 107% | viability, T/C (second compound 0.316 µM, first compound 0.316 µM) 89.7% | viability, T/C (second compound 0.316 µM, first compound 1 µM) 96.5% | viability, T/C [9] 96.9% | viability, T/C [10] 110% | viability, T/C [11] 97.5% | viability, T/C [12] 81.1% | viability, T/C (second compound 1 µM, first compound 0.316 µM) 83.2% | viability, T/C (second compound 1 µM, first compound 1 µM) 97.3% | viability, T/C [13] 100% | viability, T/C [14] 97.5% | viability, T/C [15] 93.1% | viability, T/C [16] 91.8% | viability, T/C (second compound 3.16 µM, first compound 0.316 µM) 103% | viability, T/C (second compound 3.16 µM, first compound 1 µM) 95.3% | viability, T/C [17] 87.2% | viability, T/C [18] 86% | viability, T/C [19] 91.8% | viability, T/C [20] 82.4% | viability, T/C (second compound 10 µM, first compound 0.316 µM) 84.7% | viability, T/C (second compound 10 µM, first compound 1 µM) 76.1%
> 1000 nM: IC50 (second compound 0.1 µM) | IC50 (second compound 0.316 µM) | IC50 (second compound 1 µM) | IC50 (second compound 3.16 µM) | IC50 (second compound 10 µM)
